# Experimental data as given in ChEMBL document CHEMBL1201862, “PubChem BioAssay data set” (2004).
#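 Method: 48-hour compound exposure of cells in 96-well plates, five concentrations, linear interpolation of endpoints. GI50 is the concentration that inhibits growth by half.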 The source made the active and inactive calls. Rule as the data show it: active = GI50 up to about 1.1 µM and inactive = higher.
# How the values were obtained:
# Experiment in all cases: NCI tumour cell line growth inhibition, 48 h
# [1] = tested on: Malme-3M
# [2] = tested on: SN12C
# [3] = tested on: NCI/ADR-RES
# [4] = tested on: A549
# [5] = tested on: SK-MEL-28
# [6] = tested on: MDA-N
# [7] = tested on: COLO 205
# [8] = tested on: ACHN
# [9] = tested on: SR
# [10] = tested on: HCT-15
# [11] = tested on: OVCAR-4
# [12] = tested on: RPMI-8226
# [13] = tested on: SF-295
# [14] = tested on: OVCAR-8
# [15] = tested on: SK-MEL-5
# [16] = tested on: NCI-H226
# [17] = tested on: NCI-H460
# [18] = tested on: UACC-62
# [19] = tested on: KM12
# [20] = tested on: T47D
SMILES,GI50 [1],GI50 [2],GI50 [3],GI50 [4],GI50 [5],GI50 [6],GI50 [7],GI50 [8],GI50 [9],GI50 [10] [µM],GI50 [11],GI50 [12],GI50 [13],GI50 [14],GI50 [15],GI50 [16],GI50 [17],GI50 [18],GI50 [19],GI50 [20]
O=C1C=CC(=O)c2c(O)ccc(O)c21 [NAPHTHAZALIN],1.18 µM (inactive),1.33 µM (inactive),1.92 µM (inactive),8.95 µM (inactive),1.34 µM (inactive),2.75 µM (inactive),0.807 µM (active),1.21 µM (inactive),0.222 µM (active),0.753,2.39 µM (inactive),0.436 µM (active),7.91 µM (inactive),0.91 µM (active),2.14 µM (inactive),9.25 µM (inactive),2.47 µM (inactive),1.48 µM (inactive),5.25 µM (inactive),2.07 µM (inactive)
COc1cc(C=C2N=C(c3ccccc3)N(n3c(-c4ccccc4)nc4ccccc4c3=O)C2=O)cc(OC)c1OC,19.3 µM (inactive),16.9 µM (inactive),38.9 µM (inactive),36.9 µM (inactive),17.7 µM (inactive),29 µM (inactive),22 µM (inactive),28.7 µM (inactive),40.7 µM (inactive),31.5,27.4 µM (inactive),> 10 µM (inactive),19.5 µM (inactive),21.1 µM (inactive),23.4 µM (inactive),25.6 µM (inactive),20.3 µM (inactive),22.3 µM (inactive),19.7 µM (inactive),20.3 µM (inactive)
